Source: patent US20230365571A1, “COMPOUNDS AND COMPOSITIONS AS Sppl2a INHIBITORS” (Novartis AG, priority 2020, published 2023)

Key:
human SPPL2a [1] = target: T1, human SPPL2a (Homo sapiens, UniProt Q8TCT8); experiment: Sppl2a RGA (reporter gene assay) in HEK293 cells; type: cell-based; parameters: expressed in transfected cells; host or cells: HEK293 (transient); settings: NT-TNF-VP16-Gal4 substrate, Gal4-luciferase reporter, 24 h
T1 sequence (Q8TCT8 26-520): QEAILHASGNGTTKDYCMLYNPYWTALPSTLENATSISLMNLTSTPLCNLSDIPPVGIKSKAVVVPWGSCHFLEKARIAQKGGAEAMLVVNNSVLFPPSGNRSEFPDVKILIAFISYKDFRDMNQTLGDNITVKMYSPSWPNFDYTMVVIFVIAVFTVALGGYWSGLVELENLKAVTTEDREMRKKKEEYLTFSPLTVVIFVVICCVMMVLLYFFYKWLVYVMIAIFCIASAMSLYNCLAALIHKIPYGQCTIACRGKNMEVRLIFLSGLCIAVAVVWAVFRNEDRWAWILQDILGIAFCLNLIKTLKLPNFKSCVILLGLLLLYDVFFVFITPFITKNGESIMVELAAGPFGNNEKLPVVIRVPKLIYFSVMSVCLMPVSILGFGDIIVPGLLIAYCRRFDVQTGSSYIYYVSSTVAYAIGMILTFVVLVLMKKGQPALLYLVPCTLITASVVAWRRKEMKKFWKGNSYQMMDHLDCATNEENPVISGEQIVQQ
Source text: Sppl2a RGA (Reporter Gene Assay):
Sppl2a is an intramembrane aspartyl protease with similarities to presenilin, the active subunit of the γ-secretase complex. The assay is based on the coupling of the proteolytic degradation of a membrane bound synthetic substrate (VP16-Gal4 fusion protein with the N-terminal domain of TNF alpha), which migrates to the nucleus upon cleavage, with the Gal4 driven expression of luciferase. Inhibition of Sppl2a results in a reduction of nuclear VP16-Gal4 activator and therefore in a reduction of the production of luciferase. The luciferase dependent-luminescence is plotted against the concentrations of compound to generate a dose response curve, which allows the calculation of the IC50 value.
DNA vectors encoding human Sppl2a, NT-TNF-VP16-Gal4 and a Gal4-luciferase reporter were transiently transfected in HEK293 cells. In a typical experiment 5 μg plasmid for SPPL2a, 10 μg plasmid encoding the reporter Gal4-luciferase and 20 μg plasmid encoding the substrate NT-TF-VP16-Gal4 were mixed together. The DNA mixture was combined with 107 μl FuGENE® (Promega), 735 μl Opti-MEM® (Life Technologies) and incubated for 5 minutes at RT. To this mixture 20 mL of concentrated HEK293 cells were added and thoroughly mixed. The cell suspension was distributed to a white solid 384 well plate. Within 5 hours, 50 nl of compound in DMSO was stamped into the wells via pintool. The plate was incubated for 24 h at 37° C., 5% CO2 in a humidified incubator, before the addition of 25 μl Bright Glo. After incubation at RT for 5 min, the plate was transferred to a luminometer and the luminescence was measured. The IC50 was determined by plotting compound concentration vs. normalized luminescence values.

human SPPL2a [2] = target: T1, human SPPL2a; experiment: Sppl2a TL (translocation) imaging assay in U-2 OS cells; type: cell-based; parameters: expressed in transfected cells; settings: U-2 OS cells expressing human SPPL2a and EGFP-TNFα(aa1-76) NTF substrate; 24 h
Protocol: SPPL2a, TL in U-2 OS Cells. Stable U-2 OS cell lines expressing human SPPL2a constitutively and a EGFP-labeled TNFα(aa1-76) NTF substrate under a doxycycline-regulated promoter were used for the imaging assays. Cells were seeded at 3000 cells/30 μL/384-well in DMEM/GlutaMax™-I (Invitrogen) supplemented with tetracycline-free 10% FBS (Amimed) and incubated at 37° C., 5% CO2 for 3-4 h. Subsequently, 3.3 μL of inhibitors, prediluted in doxycycline-containing medium for 11-point concentration-response curves, were added to each well using a CyBi well liquid handling device (Cybio AG, Jena, Germany) to result in final inhibitor concentrations ranging from 100 μM to 1 nM (final DMSO concentration 0.9% (v/v)) and 5 μg/mL doxycycline). The cells were incubated with inhibitor at 37° C., 5% CO2 for 24 h. Thereafter cell were fixed in 4% PFA/PBS and in parallel, nuclei were stained with Hoechst (Invitrogen) 1:5000 in PBS for 30 min. The plates were imaged using a Cellomics ArrayScan VTI HCS reader with 10×/0.3NA objective (Thermo Fisher Scientific, USA). Six images per well were acquired. Images for the EGFP signal (Ex395, Em509) and the Hoechst nuclear dye (Ex350, Em425) were acquired simultaneously with image analysis using the “Nuclear Translocation” assay algorithm of the Cellomics ArrayScan software. Nuclei were detected based on the Hoechst staining, the nuclear mask was transferred to the EGFP channel, and a 4 pixel wide cytoplasm ring region was defined around the nucleus. The intensity of the EGFP signal was measured both in the nuclear and in the cytoplasm ring region of each individual cell (in general 800-1000 individual cells were analyzed per well), and the difference of the average nuclear versus average cytoplasmic intensity of the EGFP signal was calculated (“CircRingAvgIntenDiffCh2”=“CircAvgIntenCh2”−“RingAvgIntenCh2”). Additionally the number of cells were acquired (feature termed “ValidCellCount”) and used to calculate cell toxicity (CC50). Percent inhibition was calculated relative to the positive (0.5 μM LY-411,575=100% inhibition) and negative (DMSO=0% inhibition) controls. The IC50 value was calculated from the plot of percentage of inhibition vs inhibitor concentration using nonlinear regression analysis software, e.g., Origin (OriginLab Corp.).

| IC50 (human SPPL2a [1]) [nM] | IC50 (human SPPL2a [2]) [nM] | SMILES |
| --- | --- | --- |
| 8 | 10 | O=C(C[C@H](C(=O)N[C@@H]1C(=O)N2CC3(CC3)CN2C(=O)c2ccccc21)C1CC1)Nc1sc(-c2ccc(C(F)(F)F)nc2)nc1Cl [Example 106, (S)-N^4-(4-Chloro-2-(6-(trifluoromethyl)pyridin-3-yl)thiazol-5-yl)-2-cyclopropyl-N^1-((S)-5,11-dioxo-10,11-dihydro-1H,3H,5H-spiro[benzo[d]pyr-azolo[1,2-a][1,2]diazepine-2,1′-cyclopropan]-10-yl)succinamide] |
| 42 | 180 | C[C@H](Cc1nc2cccc(Br)c2[nH]1)C(=O)N[C@@H]1C(=O)N2CCCN2Cc2ccccc21 [Example 113, (R)-3-(7-bromo-1H-benzo[d]imidazol-2-yl)-2-methyl-N-((S)-11-oxo-2,3,10,11-tetrahydro-1H,5H-benzo[d]pyrazolo[1,2-a][1,2]diazepin-10-yl)propanamide] |
| 13 | 116 | Cc1c(F)ccc2nc(C[C@@H](C)C(=O)N[C@@H]3C(=O)N4CCCN4Cc4ccccc43)[nH]c12 [Example 116, (R)-3-(6-fluoro-7-methyl-1H-benzo[d]imidazol-2-yl)-2-methyl-N-((S)-11-oxo-2,3,10,11-tetrahydro-1H,5H-benzo[d]pyrazolo[1,2-a][1,2]diazepin-10-yl)propanamide] |
| 17 | 17 | O=C(C[C@H](C(=O)N[C@@H]1C(=O)N2CCCN2C(=O)c2ccccc21)C1CC1)Nc1sc(-c2cnn(C(F)F)c2)nc1Cl [Example 104, (S)-N^4-(4-Chloro-2-(1-(difluoromethyl)-1H-pyrazol-4-yl)thiazol-5-yl)-2-cyclopropyl-N^1-((S)-5,11-dioxo-2,3,10,11-tetrahydro-1H,5H-benzo[d]pyrazolo [1,2-a][1,2]diazepin-10-yl)succinamide] |
| 63 | 548 | C[C@H](Cc1nc2cccc(C(F)(F)F)c2[nH]1)C(=O)N[C@@H]1C(=O)N2CCCN2Cc2ccccc21 [Example 114, (R)-2-methyl-N-((S)-11-oxo-2,3,10,11-tetrahydro-1H,5H-benzo[d]pyrazolo[1,2-a][1,2]diazepin-10-yl)-3-(7-(trifluoromethyl)-1H-benzo[d]imidazol-2-yl)propanamide] |
| 11 | 15 | O=C(C[C@H](C(=O)N[C@@H]1C(=O)N2CCCN2C(=O)c2ccccc21)C1CC1)Nc1sc(-c2ccc(C(F)(F)F)nc2)nc1Cl [Example 107, (S)-N^4-(4-Chloro-2-(6-(trifluoromethyl)pyridin-3-yl)thiazol-5-yl)-2-cyclopropyl-N^1-((S)-5,11-dioxo-2,3,10,11-tetrahydro-1H,5H-benzo[d]pyrazolo [1,2-a][1,2]diazepin-10-yl)succinamide] |

The next lines start with the compound.

| SMILES | IC50 (human SPPL2a [1]) [nM] | IC50 (human SPPL2a [2]) [nM] |
| --- | --- | --- |
| Cc1cncc(-c2cc(NC(=O)C[C@H](C(=O)N[C@@H]3C(=O)N4CCCN4Cc4ccccc43)C3CC3)n(C)n2)c1 [Example 75, (S)-2 Cyclopropyl-N^4-(1-methyl-3-(5-methylpyridin-3-yl)-1H-pyrazol-5-yl)-N^1-((S)-11-oxo-2,3,10,11-tetrahydro-1H,5H-benzo[d]pyrazolo [1,2-a][1,2]diazepin-10-yl)succinamide] | 4 | 5 |
| C[C@H](CC(=O)Nc1sc(-c2ccn(C)n2)nc1Cl)C(=O)N[C@@H]1C(=O)N2CCCN2Cc2ccccc21 [Example 73, (R)-N^4-(4-Chloro-2-(1-methyl-1H-pyrazol-3-yl)thiazol-5-yl)-2-methyl-N^1-((S)-11-oxo-2,3,10,11-tetrahydro-1H,5H-benzo[d]pyrazolo [1,2-a][1,2]diazepin-10-yl)succinamide] | 25 | 4 |
| CC[C@H](CNC(=O)c1oncc1C)C(=O)N[C@@H]1C(=O)N2CCCN2Cc2ccccc21 [Example 51, 4-Methyl-N-((R)-2-(((S)-11-oxo-2,3,10,11-tetrahydro-1H,5H-benzo[d]pyrazolo [1,2-a][1,2]diazepin-10-yl)carbamoyl)butyl) isoxazole-5-carboxamide] | 52 | 99 |
| CC[C@H](CNC(=O)c1sncc1C)C(=O)N[C@@H]1C(=O)N2CCCN2C(=O)c2ccccc21 [Example 35, N-((R)-2-(((S)-5,11-Dioxo-2,3,10,11-tetrahydro-1H,5H-benzo[d]pyrazolo [1,2-a][1,2]diazepin-10-yl)carbamoyl)butyl)-4-methylisothiazole-5-carboxamide] | 34 | 45 |
| CCCOc1nc(C)c(C(=O)NC[C@@H](CC)C(=O)N[C@@H]2C(=O)N3CCCN3Cc3ccccc32)s1 [Example 30, 4-Methyl-N-((R)-2-(((S)-11-oxo-2,3,10,11-tetrahydro-1H,5H-benzo[d]pyrazolo [1,2-a][1,2]diazepin-10-yl)carbamoyl)butyl)-2-propoxythiazole-5-carboxamide] | 16 | 29 |
| Cc1noc(C)c1C(=O)NC[C@H](C(=O)N[C@@H]1C(=O)N2CCCN2C(=O)c2ccccc21)C(F)(F)F [Example 48, N-((R)-2-(((S)-5,11-Dioxo-2,3,10,11-tetrahydro-1H,5H-benzo[d]pyrazolo [1,2-a][1,2]diazepin-10-yl)carbamoyl)-3,3,3-trifluoropropyl)-3,5-dimethylisoxazole-4-carboxamide] | 22 | 85 |
| CC(C)NC(=O)c1cc(NC(=O)C[C@H](C(=O)N[C@@H]2C(=O)N3CCCN3Cc3ccccc32)C2CC2)n(C)n1 [Example 67, (S)-2-Cyclopropyl-N^4-(3-(isopropylcarba-moyl)-1-methyl-1H-pyrazol-5-yl)-N^1-((S)-11-oxo-2,3,10,11-tetrahydro-1H,5H-benzo[d]pyrazolo [1,2-a][1,2]diazepin-10-yl)succinamide] | 5 | 2 |
| Cc1nc(C2=CCOCC2)sc1C(=O)NC[C@H](C(=O)N[C@@H]1C(=O)N2CCCN2Cc2ccccc21)C(F)(F)F [Example 44, 2-(3,6-Dihydro-2H-pyran-4-yl)-4-methyl-N-((R)-3,3,3-trifluoro-2-(((S)-11-oxo-2,3,10,11-tetrahydro-1H,5H-benzo[d]pyrazolo [1,2-a][1,2]diazepin-10-yl)carbamoyl)pro-pyl)thiazole-5-carboxamide] | 27 | 67 |
| C[C@H](CC(=O)Nc1cc(-c2ccco2)nn1C1CC1)C(=O)N[C@@H]1C(=O)N2CCCN2Cc2ccccc21 [Example 96, (R)-N^4-(1-Cyclopropyl-3-(furan-2-yl)-1H-pyrazol-5-yl)-2-methyl-N^1-((S)-11-oxo-2,3,10,11-tetrahydro-1H,5H-benzo[d]pyrazolo [1,2-a][1,2]diazepin-10-yl)succinamide] | 28 | 12 |
